Reference: paper PMC3882240, “Matrix Stiffness Affects Endocytic Uptake of MK2-Inhibitor Peptides” (PLoS ONE, 2014)
Where a SMILES comes first, the peptide text is derived from it. Where no end group is shown, it is not given here. The star is where a group is joined. FITC = O=C1OC2(c3ccc(O)cc3Oc3cc(O)ccc32)c2ccc(NC(=S)*)cc21; Ahx = NCCCCCC(=O)O

System: mesothelial cells
Assay: Intracellular uptake of FITC-YARA by flow cytometry / confocal imaging
Type: cell-based, Human
Procedure: Flow cytometry was used to characterize the uptake of FITC-YARA. Mesothelial cells were seeded on gel substrates or tissue culture plastic, and cultured as previously described. After treating overnight with serum free media, cells were treated with various concentrations of FITC-YARA (refer to figures) or PBS (untreated control) in serum free media and incubated for 24 hours. To collect cells for flow cytometry, cells were washed with PBS, trypsin treated for 5–10 minutes, neutralized with serum-containing media, collected in a 15-ml conical tube and spun down at 300 × g for seven minutes. Cells were washed with PBS, quenched with trypan blue, then washed four to five times with PBS. Once excess trypan blue was washed away, cells were fixed using 1X cytofix buffer (BD). Samples were stored protected from light at 4°C until samples were run on the Cytomics FC500 MPL flow cytometer (Beckman Coulter) equipped with MXP Cytometry List Mode Data Acquisition and Analysis Software. Data acquisition required 10,000 events. Figures were obtained using Flow Jo software.
To characterize uptake on soft substrates, cells were pretreated with 10 mM methyl-β-cyclodextrin (MβCD) for 1 hour or incubated at 4°C for 30 minutes, then treated with 3 µM YARA for 1 hour. Cells were then collected and assayed by flow cytometry as previously described.
To elucidate the role of the cytoskeleton in the uptake of FITC-YARA, mesothelial cells were treated with various chemicals known to alter the cytoskeleton. Cytochalasin D (Sigma; 5 µg/ml) was used as an inhibitor of stress fiber formation on tissue culture plastic, lysophosphatidic acid (LPA; Sigma; 1,5,and 25 µg/ml ) was used to induce stress fiber formation on soft substrates and tissue culture plastic, and nocodozole (Calbiochem; 1 and 10 µg/ml) was used to inhibit microtubule polymerization on soft substrates. Cells were seeded and grown on substrates or tissue culture plastic as previously described. Following one hour pretreatment with the various inhibitors, cells were incubated with FITC-YARA for 1 hour then processed for flow cytometry.
For confocal images, cells were treated with FITC-YARA for 1 hour, then washed five times with media before imaging live using an FV1000 confocal microscopy equipped with ASW-10 software (Olympus).

Row | Molecule | uptake on soft substrates compared to tissue culture plastic at high seeding density (3 µM FITC-YARA, 71,000 cells/cm^2, flow cytometry) | uptake on soft substrates compared to tissue culture plastic (3 µM FITC-YARA, 24 h, 21,000 cells/cm^2, serum-free media, flow cytometry, trypan blue quench) | intracellular uptake compared to untreated controls (all substrates, 3 µM FITC-YARA, 24 h, flow cytometry) | uptake on soft substrates with MβCD (soft substrate, 10 mM methyl-β-cyclodextrin pretreatment 1 h then 3 µM peptide 1 h, flow cytometry) | uptake on soft substrates at 4°C (soft substrate, 30 min at 4°C then 3 µM peptide 1 h, flow cytometry) | effect of cytochalasin D (actin filament disruption) on peptide uptake (3 µM, TCPS, 5 µg/ml cytochalasin D 1 h pretreatment, peptide 1 h, flow cytometry) | effect of nocodazole (microtubule polymerization inhibition) on uptake (3 µM, soft substrate, 21,000 cells/cm^2, 1 or 10 µg/ml nocodazole 1 h pretreatment, peptide 1 h, flow cytometry, dose dependent) | effect of LPA (actin filament induction) on peptide uptake (3 µM, soft substrate, 21,000 cells/cm^2, 5 or 25 µg/ml LPA 1 h pretreatment, peptide 1 h, flow cytometry)
1 | CC(C)C[C@H](NC(=O)[C@H](C)NC(=O)[C@H](CCCCN)NC(=O)[C@H](C)NC(=O)[C@H](CCCNC(=N)N)NC(=O)[C@H](C)NC(=O)[C@H](CCC(N)=O)NC(=O)[C@H](CCCNC(=N)N)NC(=O)[C@H](C)NC(=O)[C@H](C)NC(=O)[C@H](C)NC(=O)[C@H](CCCNC(=N)N)NC(=O)[C@H](C)NC(=O)[C@H](Cc1ccc(O)cc1)NC(=O)CCCCCNC(=S)Nc1ccc2c(c1)C(=O)OC21c2ccc(O)cc2Oc2cc(O)ccc21)C(=O)N[C@@H](C)C(=O)N[C@@H](CCCNC(=N)N)C(=O)N[C@@H](CCC(N)=O)C(=O)N[C@@H](CC(C)C)C(=O)NCC(=O)N[C@H](C(=O)N[C@@H](C)C(=O)N[C@@H](C)C(N)=O)C(C)C [FITC-YARA] ({FITC-Ahx}-YARAAARQARAKALARQLGVAA-NH2) | decreased the amount of FITC-YARA that was endocytosed | approximately double the uptake | increased intracellular uptake compared to untreated controls | inhibited with MβCD pretreatment | inhibited at low temperatures | – | – | –
2 | YARAAARQARAKALARQLGVAA-NH2 [YARA] | – | – | – | – | – | no effect on peptide uptake | pronounced increase in YARA uptake | no effect on peptide uptake
